Test results taken from patent publication US20040076622A1, “Local production and/or delivery of anti-cancer agents by stromal cell precursors” (Board of Regents, The University of Texas System, priority 2002, published 2004).
Where two headings read alike, the source gives them in different places.

Assays:
MFP-regulated promoter = assay: MFP dependent induction of IFN-α from AAV-infected MSC (ELISA); format: cell-based, human; settings: MSC infected with MFP regulated AAV
Procedure: Regulated expression from a drug inducible AAV vector. An AAV construct was used that expressed IFN-α under the control of a MFP-regulated promoter, to infect normal donor MSC in vitro. Briefly, MSC were infected with 10^3 GE of AAV-IFN-α and 10^3 GE of AAV-gal4prlMFP, and expanded for 10 additional days. These cells were subcultured into 12 well dished were MFP (dissolved in 0.1% ETOH) or solvent carrier was added at the concentrations noted. MSC infected w/ the MFP regulated AAV, express IFN-α only after 18 h exposure to MFP (FIG. 4A). Three drug concentrations were tested, each dose was 10-fold less than the previous one, and with the initial dose of 10^−7 M being 3 logs less than the dose commonly given for chemical abortions in humans. Of note is that a one-time addition of MFP results in a prolonged 8-10 day expression of IFN-α, peaking at 4-5 days after drug addition. […] Ten days after IFN-α level reached background activity we waited 3 additional days and added another dose of 10^-8 M MFP. […]
Exemplary methods for harvesting, culture, and infection of MSC. […] Forty-eight hours later cells are analyzed for βgal expression using X-gal histochemical staining or analysis with FACS utilizing CM-FDG, as in Marini et al. (1999). […] Six to 24 h later, supernatant is collected and analyzed via Quantikine IFN-α ELISA (Biosource International Inc Camarillio Calif.).

[1] = Systemic expression of IFN-α after intramuscular injection of AAV in mice (ELISA); format: in vivo, mouse; settings: one application of MFP given IP, mice injected with inducible AAVs
Procedure: In vivo testing. To initiate a in vivo culture model of CML, two BCR-ABL+ cell lines, the K562 (which grow extramedullary in nu/nu mice) or BV173 (which grows intra bone marrow in BalbC/nu mice) were injected into respective mice. […] Utilizing the BV173 cell line we tested three cell doses and found one million BV173 cells were sufficient to kill the mice within 45 days, whereas 5×10^5 BV173 cells allowed the mice to survive for 60+ days with one mice still surviving. […] As an alternative to using MSCs as a cell based therapy, the AAV vectors may be directly inject into the muscle, thereby allowing secretion of IFN-α systemically. Evaluation of this route of delivery was performed by an intramuscular injection of […] AAV-CMV-IFN-α or 5×10^10 GE of AAV-Gal4hPRL-65AD and 5×10^10 GE of AAV-G5E-IFN-α into the quadriceps of mice. Mice were bled weekly and the serum was analyzed for IFN-α expression using the Biosource ELISA kit. As shown in FIG. 9 circulating levels of hIFN-α was detected in the peripheral blood, and more importantly, it was identified over the high background level seen in these nu/nu animals. […] Using this mouse model circulating levels of human IFN-α were detected. Human MSC may also be detected using molecular, fluorescent, and immunohistochemical approaches.

KBM5-STI cells = assay: Growth inhibition of STI-resistant KBM5 cells by STI and IFN-α; format: cell-based; settings: for Growth inhibition of KBM5-STI cells: ST1571 0.5, 1.0, 2.0 tmol, IFNα 2,000, 5,000, 10,000 U
Excerpt: (§1) The effects of IFNA and ST1571 on STI-resistant KBM5 cells were studied.

CML = settings: cited from earlier work
KBM5 cells = assay: Growth inhibition of KBM5 cells by STI and IFN-α; format: cell-based; settings: ST1571 0.5, 1.0, 2.0 tmol; IFNα 2,000, 5,000, 10,000 U
Excerpt: as §1

melanoma = settings: cited from earlier work
MSC = assay: Effect of MDA7 on growth of the MSC; format: cell-based; settings: MSC growth not affected
Procedure: MSC were infected with a β-gal MDA7 adenovirus provided by Dr. Sunil Chada (Introgen, Houston, Tex.) at 50, 500, 5,000, and 25,000 MOI. All experiments were performed in duplicate supernatant from control and MDA7-MSC was obtained and added to KBM5 and KBM5-STI cells and assayed at 24 and 72 hours. Co-cultures of β-gal MDA7-MSC and control MSC with KBM5 (STI-sensitive) and KBM5-STI (STI-resistant) cells were also performed, with the MSC growing to near-confluency and 0.125×10^6 cells/mL plated on the MSC in 12 well plates. All wells were assayed at 24 and 72 hours.

[2] = patients with chronic phase CML

CC#C[C@]1(O)CC[C@H]2[C@@H]3CCC4=CC(=O)CCC4=C3[C@@H](c3ccc(N(C)C)cc3)C[C@@]21C [MFP, mifpristone]
Time of peak IFN-α expression after drug addition (MFP-regulated promoter): 4 to 5 days | Duration of IFN-α expression after a one-time addition of MFP (MFP-regulated promoter; 18 h exposure): 8 to 10 days | Period over which the single peak of IFN-α activity decays [1]: 7 days

Cc1ccc(NC(=O)c2ccc(CN3CCN(C)CC3)cc2)cc1Nc1nccc(-c2cccnc2)n1 [ST1571]
Growth inhibition of KBM5-STI cells (KBM5-STI cells): resistant | Complete cytogenetic remissions (CML; [2]): 95% | Hematological remission (CML; [2]): > 90% | RT-PCR negativity (CML; [2]): 8% | Growth inhibition of KBM5 cells (KBM5 cells): highly sensitive

IFNα
Overall response rate (melanoma; advanced melanoma): 20% | Improvement in the fraction of patients who are disease-free (melanoma; high risk melanoma): 42% | Growth inhibition of KBM5-STI cells (KBM5-STI cells): but not on KBM5-STI cells | Enhancement of the STI effect by IFNα (KBM5-STI cells; in vitro, KBM5 and KBM5-STI cells): did not enhance the STI effect | CCR's lost (CML; CML patients at 5 years): 42% | CCR's lost (CML; CML patients at 8 years): 50% | Patients able to maintain high concentrations (CML; patients who received INFα for CML): less than 30% | Growth inhibition of KBM5 cells (KBM5 cells): pronounced growth inhibitory effects

B1: MDA7: melanoma differentiation associated protein 7, classified as interleukin-24 (protein, UniProt Q13007 52-206, looked up)
Interleukin-24: QEFHFGPCQVKGVVPQKLWEAFWAVKDTMQAQDNITSARLLQQEVLQNVSDAESCYLVHTLLEFYLKTVFKNYHNRTVEVRTLKSFSTLANNFVLIVSQLQPSQENEMFSIRDSAHRRFLLFRRAFKQLDVEAALTKALGEVDILLTWMQKFYKL
Toxic effects on MSC (MSC): no toxic effects
